Where two headings read alike, the source gives them in different places.
How the values were obtained:
[1] = PPI half-life (serum concentration profile), n of 1 studies; assay type: in vivo, human; conditions: for half-life: human, serum, Day 1, n of 1
Source text: The measure of a PPIs activity can be predicted by looking at AUC above 1 micromole. The elimination rate (Kel) is the only variable that can be changed to increase the AUC for a given PPI. Half-life=0.693/Kel
These are all n of 1 studies all performed on the same subject. (Unless otherwise stated, 1.68 g NaHCO3 was used as buffering agent)

H+, K+-ATPase = biological target: T1, H+, K+-ATPase (Rattus norvegicus, UniProt P09626); conditions: cited from earlier work
T1 construct: host or cells: rats (in vivo treatment; endogenous gastric enzyme)
T1 sequence (P09626 whole entry): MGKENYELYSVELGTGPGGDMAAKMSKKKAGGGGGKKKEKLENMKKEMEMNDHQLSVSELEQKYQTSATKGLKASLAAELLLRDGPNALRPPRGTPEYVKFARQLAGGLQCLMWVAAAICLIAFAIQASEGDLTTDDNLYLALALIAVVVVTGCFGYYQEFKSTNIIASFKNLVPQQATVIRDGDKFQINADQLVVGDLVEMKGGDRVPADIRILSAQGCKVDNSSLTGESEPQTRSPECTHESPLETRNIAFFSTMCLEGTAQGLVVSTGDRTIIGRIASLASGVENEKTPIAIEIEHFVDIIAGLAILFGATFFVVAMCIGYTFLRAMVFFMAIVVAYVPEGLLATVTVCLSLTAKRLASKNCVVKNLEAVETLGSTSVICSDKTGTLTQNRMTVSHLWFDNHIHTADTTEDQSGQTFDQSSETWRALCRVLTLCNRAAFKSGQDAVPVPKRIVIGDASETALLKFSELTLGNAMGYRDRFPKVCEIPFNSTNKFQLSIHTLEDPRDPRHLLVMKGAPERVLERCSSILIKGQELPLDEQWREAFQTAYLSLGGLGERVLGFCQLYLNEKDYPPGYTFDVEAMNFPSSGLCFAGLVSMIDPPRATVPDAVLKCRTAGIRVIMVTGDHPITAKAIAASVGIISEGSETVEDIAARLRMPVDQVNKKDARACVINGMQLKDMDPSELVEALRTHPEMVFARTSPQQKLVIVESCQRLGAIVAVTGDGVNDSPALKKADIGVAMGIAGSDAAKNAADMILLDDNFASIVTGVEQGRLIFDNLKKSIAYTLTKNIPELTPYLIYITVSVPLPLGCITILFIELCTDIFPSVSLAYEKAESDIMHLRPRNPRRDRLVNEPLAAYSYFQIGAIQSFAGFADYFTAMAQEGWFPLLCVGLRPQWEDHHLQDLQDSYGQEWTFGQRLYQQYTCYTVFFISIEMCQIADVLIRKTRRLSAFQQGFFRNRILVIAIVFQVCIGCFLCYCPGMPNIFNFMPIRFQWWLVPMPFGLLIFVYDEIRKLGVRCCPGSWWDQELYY
T1 sequence (P18598 whole entry partner): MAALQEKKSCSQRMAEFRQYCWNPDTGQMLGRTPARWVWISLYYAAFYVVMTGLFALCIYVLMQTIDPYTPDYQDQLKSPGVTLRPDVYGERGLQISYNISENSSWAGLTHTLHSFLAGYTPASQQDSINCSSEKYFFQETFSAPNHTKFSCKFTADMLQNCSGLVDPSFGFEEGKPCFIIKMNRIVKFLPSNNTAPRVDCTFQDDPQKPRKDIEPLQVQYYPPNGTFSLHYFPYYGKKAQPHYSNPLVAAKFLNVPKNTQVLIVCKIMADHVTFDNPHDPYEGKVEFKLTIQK

[2] = oral, 120 mg, IR 120 mg given alone
[3] = oral, given as OME-IR 120 mg+Tenatoprazole IR 40 mg+Cimetidine 200 mg
[4] = oral, given as OME-IR 120 mg+Tenatoprazole IR 40 mg

SMILES: COc1ccc2nc([S@@+]([O-])Cc3ncc(C)c(OC)c3C)[nH]c2c1 [esomeprazole]
- half-life ([1]; 40 mg, 40 mg given alone): 1.4 h

SMILES: Cc1c(OCC(F)(F)F)ccnc1C[S+]([O-])c1nc2ccccc2[nH]1 (stereo not shown) [lansoprazole]
- half-life ([1]; oral, given as OME-IR 80 mg+Lansoprazole IR 80 mg): 3.1 h

SMILES: COc1ccc2[nH]c([S+]([O-])Cc3ncc(C)c(OC)c3C)nc2c1 (stereo not shown) [omeprazole, 5-methoxy-2-[[(4-methoxy-3,5-dimethyl-2-pyridinyl)methyl]sulfinyl]-1H benzimidazole]
- effect of omeprazole on H+, K+-ATPase activity (H+, K+-ATPase; rats pretreated with cimetidine, compared to control (no pretreatment)): much reduced effect
- effect of omeprazole on H+, K+-ATPase activity (H+, K+-ATPase; rats pretreated with secretogue carbachol): increased the effect of omeprazole
- half-life of omeprazole ([1]; administered with cimetidine (FIG. 11)): three
- half-life [1, 2]: 1.8 h
- half-life ([1]; oral, given as OME-IR 120 mg+Cimetidine 200 mg): 2.1 h
- half-life [1, 3]: 1.8 h
- half-life [1, 4]: 1.8 h

SMILES: COc1ccc2[nH]c([S+]([O-])Cc3ncc(C)c(OC)c3C)nc2n1 (stereo not shown) [tenatoprazole, 5-methoxy-2-[[(4-methoxy-3,5-dimethyl-2-pyridyl)methyl]sulfinyl]imidazo[4,5-b]pyridine]
- half-life ([1]; oral, 40 mg, 40 mg given alone): 7 h
- half-life [1, 2]: 8.7 h
- half-life [1, 3]: 12.9 h
- half-life [1, 4]: 12.9 h
